In ChEMBL document CHEMBL1938277, “N-acylaminophenothiazines: neuroprotective agents displaying multifunctional activities for a potential treatment of Alzheimer's disease” (Eur J Med Chem, 2011) one finds Activity, IC50 and Papp data, which are given here for 2 molecules.

For series [1], the system named is SH-SY5Y. Description: Neuroprotective activity against rotenone/oligomycin A-induced cell death in human SH-SY5Y cells assessed as LDH release at 3 uM treated 24 hrs before rotenone/oligomycin A challenge measured after 24 hrs relative to control. It counts as functional. (In general: LDH in the medium is a marker of cell lysis.)
Series [2] has as its system SH-SY5Y. Description: Neuroprotective activity against rotenone/oligomycin A-induced cell death in human SH-SY5Y cells assessed as LDH release at […] after 24 hrs relative to control. It counts as functional.
Series [3] deals with SH-SY5Y. Description: Neuroprotective activity against H2O2-induced cell death in human SH-SY5Y cells assessed as LDH release at 3 uM incubated for 24 hrs before H2O2 challenge measured after 24 hrs relative to control. It counts as functional.
Series [4] deals with SH-SY5Y. Description: Neuroprotective activity against okadaic acid-induced cell death in human SH-SY5Y cells assessed as LDH release at 1 uM treated 24 hrs before okadaic acid challenge measured after 24 hrs relative to control. It counts as functional.
Series [5] concerns SH-SY5Y. Description: Neuroprotective activity against rotenone/oligomycin A-induced cell death in human SH-SY5Y cells assessed as LDH release at 0.3 uM treated 24 hrs before rotenone/oligomycin A challenge measured after 24 hrs relative to control. It counts as functional.
Series [6] concerns SH-SY5Y. Description: Neuroprotective activity against FPL64176-induced toxicity in human SH-SY5Y cells assessed as increase in cell viability at 1 uM treated 24 hrs before FPL64176 challenge measured after 24 hrs by MTT assay relative to control. It counts as functional. On the technique in general: Tetrazolium dyes change colour on reduction, which living cells bring about.

Series [7] has as its system SH-SY5Y. Description: Neuroprotective activity against okadaic acid-induced cell death in human SH-SY5Y cells assessed as LDH release at 3 uM treated 24 hrs before okadaic acid challenge measured after 24 hrs relative to control. It counts as functional.
The test system of series [8] is SH-SY5Y. Description: Neuroprotective activity against FPL64176-induced toxicity in human SH-SY5Y cells assessed as increase in cell viability at 0.3 uM treated 24 hrs before FPL64176 challenge measured after 24 hrs by MTT assay relative to control. It counts as functional.
For a further series, the target named is Cholinesterase (Equus caballus, UniProt P81908).
For series [9], the system named is SH-SY5Y. Description: Neuroprotective activity against amyloid beta 1 to 42-induced cell death in human SH-SY5Y cells assessed as increase in cell viability at 1 uM pre-incubated for 24 hrs before amyloid beta 1 to 42 challenge measured after 24 hrs by MTT assay relative to control. It counts as functional.
A further series deals with T1, Acetylcholinesterase (Bos taurus, UniProt P23795).
T1 sequence (P23795 whole entry): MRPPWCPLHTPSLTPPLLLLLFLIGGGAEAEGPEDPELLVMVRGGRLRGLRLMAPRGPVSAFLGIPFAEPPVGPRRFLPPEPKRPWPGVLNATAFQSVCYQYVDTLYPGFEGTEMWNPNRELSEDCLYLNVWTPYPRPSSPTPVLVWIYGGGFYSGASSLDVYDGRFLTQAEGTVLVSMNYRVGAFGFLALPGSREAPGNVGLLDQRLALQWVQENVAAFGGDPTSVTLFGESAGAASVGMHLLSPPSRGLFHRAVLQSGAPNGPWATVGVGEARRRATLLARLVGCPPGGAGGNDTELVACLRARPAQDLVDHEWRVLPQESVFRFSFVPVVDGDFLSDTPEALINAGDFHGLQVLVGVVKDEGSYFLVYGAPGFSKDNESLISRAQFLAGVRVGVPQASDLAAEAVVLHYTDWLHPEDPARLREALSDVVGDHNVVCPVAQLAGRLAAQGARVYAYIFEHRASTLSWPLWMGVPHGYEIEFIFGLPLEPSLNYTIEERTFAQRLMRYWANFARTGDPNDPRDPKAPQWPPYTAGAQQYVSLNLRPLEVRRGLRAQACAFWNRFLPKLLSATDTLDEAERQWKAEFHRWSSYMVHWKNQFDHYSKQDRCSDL
Description: biochemical.

For series [10], the system named is SH-SY5Y. Description: Neuroprotective activity against rotenone/oligomycin A-induced cell death in human SH-SY5Y cells assessed as LDH release at 1 uM treated 24 hrs before rotenone/oligomycin A challenge measured after 24 hrs relative to control. It counts as functional.
Series [11] has as its system SH-SY5Y. Description: Antioxidant activity in human SH-SY5Y cells assessed as sequestering of rotenone/oligomycin A-induced mitochondrial free radicals at 0.3 uM after 120 mins by DCFH-DA assay. It counts as functional.
The test system of series [12] is SH-SY5Y. Description: Cytotoxicity against human SH-SY5Y cells. It counts as cell-based.
The test system of series [13] is SH-SY5Y. Description: Neuroprotective activity against rotenone/oligomycin A-induced cell death in human SH-SY5Y cells assessed as LDH release at 1 uM after 24 hrs relative to control. It counts as functional.
Series [14] deals with SH-SY5Y. Description: Neuroprotective activity against H2O2-induced cell death in human SH-SY5Y cells assessed as LDH release at 1 uM incubated for 24 hrs before H2O2 challenge measured after 24 hrs relative to control. It counts as functional.
The test system of series [15] is SH-SY5Y. Description: Neuroprotective activity against okadaic acid-induced cell death in human SH-SY5Y cells assessed as LDH release at 0.3 uM treated 24 hrs before okadaic acid challenge measured after 24 hrs relative to control. It counts as functional.
Another series is described as follows: in vitro. The settings on record: PAMPA. (In general: In PAMPA a lipid-coated filter parts donor from acceptor wells.)
Series [16] relates to SH-SY5Y. Description: Neuroprotective activity against H2O2-induced cell death in human SH-SY5Y cells assessed as LDH release at 10 uM incubated for 24 hrs before H2O2 challenge measured after 24 hrs relative to control. It counts as functional.
The test system of series [17] is SH-SY5Y. Description: Neuroprotective activity against amyloid beta 1 to 42-induced cell death in human SH-SY5Y cells assessed as increase in cell viability at 0.3 uM pre-incubated for 24 hrs before amyloid beta 1 to 42 challenge measured after 24 hrs by MTT assay relative to control. It counts as functional.
Series [18] has as its system SH-SY5Y. Description: Neuroprotective activity against H2O2-induced cell death in human SH-SY5Y cells assessed as LDH release at 30 uM incubated for 24 hrs before H2O2 challenge measured after 24 hrs relative to control. It counts as functional.
For series [19], the system named is SH-SY5Y. Description: Neuroprotective activity against FPL64176-induced toxicity in human SH-SY5Y cells assessed as increase in cell viability at 10 uM treated 24 hrs before FPL64176 challenge measured after 24 hrs by MTT assay relative to control. It counts as functional.
For series [20], the system named is SH-SY5Y. Description: Neuroprotective activity against amyloid beta 1 to 42-induced cell death in human SH-SY5Y cells assessed as increase in cell viability at 3 uM pre-incubated for 24 hrs before amyloid beta 1 to 42 challenge measured after 24 hrs by MTT assay relative to control. It counts as functional.
Series [21] deals with SH-SY5Y. Description: Neuroprotective activity against rotenone/oligomycin A-induced cell death in human SH-SY5Y cells assessed as LDH release at 0.3 uM after 24 hrs relative to control. It counts as functional.
For series [22], the system named is SH-SY5Y. Description: Neuroprotective activity against amyloid beta 1 to 42-induced cell death in human SH-SY5Y cells assessed as increase in cell viability at 10 nM pre-incubated for 24 hrs before amyloid beta 1 to 42 challenge measured after 24 hrs by MTT assay relative to control. It counts as functional.

Sequence of Cholinesterase (P81908 whole entry): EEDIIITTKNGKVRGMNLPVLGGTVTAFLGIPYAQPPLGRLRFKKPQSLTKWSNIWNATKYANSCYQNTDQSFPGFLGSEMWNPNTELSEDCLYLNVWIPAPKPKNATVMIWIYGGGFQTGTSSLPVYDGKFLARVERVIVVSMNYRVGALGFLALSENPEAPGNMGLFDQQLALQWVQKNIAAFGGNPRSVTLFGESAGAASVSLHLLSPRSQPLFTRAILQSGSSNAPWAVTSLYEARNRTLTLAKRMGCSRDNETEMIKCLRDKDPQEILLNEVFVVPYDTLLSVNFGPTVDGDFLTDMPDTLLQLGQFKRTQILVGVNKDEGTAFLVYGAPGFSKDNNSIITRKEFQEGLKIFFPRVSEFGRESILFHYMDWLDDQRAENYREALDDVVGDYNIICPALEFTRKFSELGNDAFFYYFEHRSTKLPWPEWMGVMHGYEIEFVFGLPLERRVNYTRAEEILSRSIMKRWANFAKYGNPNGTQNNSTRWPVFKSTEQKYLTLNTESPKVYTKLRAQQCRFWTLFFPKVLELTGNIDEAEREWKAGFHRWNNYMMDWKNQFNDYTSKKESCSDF
Description for Acetylcholinesterase: Inhibition of AChE in bovine erythrocytes using acetylthiocholine as substrate by Ellman method
Description for in vitro: Permeability of the compound by PAMPA assay

As to `O=C(CN1CCCC1)NN1c2ccccc2Sc2cc(Cl)ccc21`, the Activity stood at 58.9% in the series with SH-SY5Y [1]; 44.3% in the series on SH-SY5Y [2]; 57.7% in the series on SH-SY5Y [3]; 32% in the series with SH-SY5Y [4]; 55% in the series with SH-SY5Y [5]; 44.5% with SH-SY5Y [6]. Moreover, the Activity in the series with SH-SY5Y [7] is listed as 29%; in the series on SH-SY5Y [8] it was 39.8%; with SH-SY5Y [9], 81.3%; with SH-SY5Y [10] it was 51.8%; in the series with SH-SY5Y [11], 14.7%; in the series on SH-SY5Y [12], “Non-toxic”. The Activity with SH-SY5Y [13] came to 44.1%; with SH-SY5Y [14], 54.6%; in the series with SH-SY5Y [15] it was 28.3%; with SH-SY5Y [16] it was 79.9%; in the series on SH-SY5Y [17], 91.3%; in the series on SH-SY5Y [18] it was 69.5%. The figures for the Activity in the series with SH-SY5Y [19], in the series on SH-SY5Y [20] and in the series on SH-SY5Y [21] were 36.3%, 13.6% and 28.6%, respectively. Further, the half-maximal inhibitory concentration (IC50) – broadly, the point on the concentration scale where inhibition reaches its midpoint – is 1000 nM on Cholinesterase and more than 100000 nM against Acetylcholinesterase. Moreover, in “in vitro”, the Papp (in general, a coefficient for how fast a substance crosses the barrier) was 14.9 ×10⁻⁶ cm/s.

In the case of `COc1ccc2[nH]cc(CCNC(C)=O)c2c1` [MELATONIN], in the series with SH-SY5Y [22], the Activity came out at 72%.
